From ChEMBL document CHEMBL5338722, “Optical-Controlled Kinetic Switch: Fine-Tuning of the Residence Time of an Antagonist Binding to the Vasopressin V2 Receptor in In Vitro, Ex Vivo, and In Vivo Models of ADPKD” (J Med Chem, 2023)
One block for each compound: values may come before it. Active and inactive are the calls of the source. The calls are words filed in the database; no cut-off is given here.

Legend:
Vasopressin V2 receptor [1] = molecular target: T1, Vasopressin V2 receptor (Homo sapiens, UniProt P30518); test: Displacement of conivaptan-red fluorescent probe from SNAP-tagged human vasopressin V2 receptor expressed in HEK293 cells compound pre-illuminated for 10 mins with light at 435 nm and further incubated for 1 hr by HTRF assay; format: cell-based
T1 sequence (P30518 whole entry): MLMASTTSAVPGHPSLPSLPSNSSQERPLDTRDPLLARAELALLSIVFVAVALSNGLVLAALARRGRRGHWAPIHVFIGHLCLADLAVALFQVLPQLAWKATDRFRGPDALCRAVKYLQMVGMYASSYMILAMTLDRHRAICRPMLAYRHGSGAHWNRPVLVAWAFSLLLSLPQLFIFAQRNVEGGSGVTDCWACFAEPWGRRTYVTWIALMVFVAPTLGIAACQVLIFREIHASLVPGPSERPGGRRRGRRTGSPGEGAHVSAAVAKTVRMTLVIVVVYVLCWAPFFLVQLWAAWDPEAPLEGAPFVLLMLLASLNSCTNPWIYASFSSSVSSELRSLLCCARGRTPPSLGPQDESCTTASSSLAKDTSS

Vasopressin V2 receptor [2] = molecular target: T1, Vasopressin V2 receptor; test: Displacement of conivaptan-red fluorescent probe from SNAP-tagged human vasopressin V2 receptor expressed in HEK293 cells compound pre-illuminated for 10 mins with light at 365 nm and further incubated for 1 hr by HTRF assay; format: cell-based
Vasopressin V2 receptor [3] = molecular target: T1, Vasopressin V2 receptor; test: Displacement of conivaptan-red fluorescent probe from SNAP-tagged human vasopressin V2 receptor expressed in HEK293 cells assessed as kinetic rate index by measuring ratio of binding of labeled probe at 15 mins to 60 mins at IC50 compound pre-illuminated for 10 mins with light at 365 nm by dual-point competition association assay; format: cell-based; settings: filed as antagonist
[4] = molecular target: Vasopressin V1a receptor (Homo sapiens) (UniProt P37288); test: Displacement of [3H]vasopressin from human V1A receptor expressed in CHO cell membranes at 1 uM compound pre-illuminated for 10 mins with light at 365 nm by radioligand displacement assay relative to control; settings: Membrane
Chain of Vasopressin V1a receptor (Homo sapiens) (P37288 whole entry, looked up): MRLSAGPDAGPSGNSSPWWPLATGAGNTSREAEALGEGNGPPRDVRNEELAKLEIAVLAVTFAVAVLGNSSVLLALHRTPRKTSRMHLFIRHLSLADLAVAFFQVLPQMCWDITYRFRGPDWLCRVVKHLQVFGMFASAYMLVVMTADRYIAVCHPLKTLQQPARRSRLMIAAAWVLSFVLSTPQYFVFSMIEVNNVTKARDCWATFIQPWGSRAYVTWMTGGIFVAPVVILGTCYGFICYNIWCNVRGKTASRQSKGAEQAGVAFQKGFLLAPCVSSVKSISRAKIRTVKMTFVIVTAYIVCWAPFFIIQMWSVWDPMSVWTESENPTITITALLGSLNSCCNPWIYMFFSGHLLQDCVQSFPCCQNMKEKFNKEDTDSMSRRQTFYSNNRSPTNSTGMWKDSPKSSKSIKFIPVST

Vasopressin V2 receptor [5] = molecular target: T1, Vasopressin V2 receptor; test: (§1) Displacement of conivaptan-red fluorescent probe from SNAP-tagged human vasopressin V2 receptor expressed in HEK293 cells assessed as residence time at 0.1 uM compound pre-illuminated for 10 mins with light at 365 nm by dual-point competition association assay; format: cell-based; settings: filed as antagonist
Vasopressin V2 receptor [6] = molecular target: T1, Vasopressin V2 receptor; test: Displacement of conivaptan-red fluorescent probe from SNAP-tagged human vasopressin V2 receptor expressed in HEK293 cells assessed as on-rate constant at 0.1 uM compound pre-illuminated for 10 mins with light at 365 nm by dual-point competition association assay; format: cell-based; settings: filed as antagonist
Vasopressin V2 receptor [7] = molecular target: T1, Vasopressin V2 receptor; test: Displacement of conivaptan-red fluorescent probe from SNAP-tagged human vasopressin V2 receptor expressed in HEK293 cells assessed as off-rate constant at 0.1 uM compound pre-illuminated for 10 mins with light at 365 nm by dual-point competition association assay; format: cell-based; settings: filed as antagonist
Vasopressin V2 receptor [8] = molecular target: T1, Vasopressin V2 receptor; test: Antagonist activity at human vasopressin V2 receptor expressed in CHO cells assessed as inhibition of cAMP production; format: functional, cell-based; settings: filed as antagonist
Vasopressin V2 receptor [9] = molecular target: T1, Vasopressin V2 receptor; test: Antagonist activity at human vasopressin V2 receptor expressed in CHO cells assessed as inhibition of vasopressin induced cAMP production at 10 times Ki preincubated for 30 mins followed by two consecutive washouts and irradiated with light at 435 nm during two washouts; format: functional, cell-based
Vasopressin V2 receptor [10] = molecular target: T1, Vasopressin V2 receptor; test: Antagonist activity at human vasopressin V2 receptor expressed in CHO cells assessed as inhibition of vasopressin induced cAMP production at 10 times Ki preincubated for 30 mins followed by two consecutive washouts and irradiated with light at 365 nm during two washouts; format: functional, cell-based; settings: filed as antagonist
Vasopressin V2 receptor [11] = molecular target: T1, Vasopressin V2 receptor; test: (§2) Antagonist activity at human vasopressin V2 receptor expressed in CHO cells assessed as inhibition of vasopressin induced cAMP production at 10 times Ki preincubated for 30 mins followed by two consecutive washouts and irradiated with light at 365 nm in first 30 mins of washout and with light at 435 nm in second 30 mins of washout; format: functional, cell-based
Vasopressin V2 receptor [12] = molecular target: T1, Vasopressin V2 receptor; test: as §2, with “vasopressin-induced” for “vasopressin induced”, “435” for “365”, “365” for “435”; format: functional, cell-based; settings: filed as antagonist
Vasopressin V2 receptor [13] = molecular target: T1, Vasopressin V2 receptor; test: Antagonist activity at human vasopressin V2 receptor expressed in CHO cells assessed as inhibition of AVP-induced cAMP production at 1 uM preincubated for 30 mins followed by two consecutive washouts and irradiated with light at 365 nm during two washouts; format: functional, cell-based; settings: filed as antagonist
[14] = molecular target: Serine/threonine-protein kinase mTOR (Homo sapiens) (UniProt P42345); test: (§3) Inhibition of mTOR (unknown origin) assessed as inhibition of p70S6K phosphorylation at 10 times Ki preincubated for 30 mins followed by two consecutive washouts and irradiated with light at 365 nm during two washouts by Western blot analysis
[15] = molecular target: Serine/threonine-protein kinase mTOR (Homo sapiens) (UniProt P42345); test: as §3, with “in first 30 mins of washout and with light at 435 nm in second 30 mins of washout” for “during two washouts”
[16] = molecular target: Serine/threonine-protein kinase mTOR (Homo sapiens) (UniProt P42345); test: Inhibition of mTOR (unknown origin) assessed as inhibition of p70S6K phosphorylation at 10 times Ki preincubated for 30 mins followed by two consecutive washouts and irradiated with light at 435 nm in first 30 mins of washout and with light at 365 nm in second 30 mins of washout by Western blot analysis
[17] = molecular target: Serine/threonine-protein kinase mTOR (Homo sapiens) (UniProt P42345); test: Inhibition of mTOR (unknown origin) assessed as inhibition of p70S6K phosphorylation at 10 times Ki preincubated for 30 mins followed by two consecutive washouts and irradiated with light at 435 nm during two washouts by Western blot analysis
Mus musculus [18] = test: (§4) In vivo inhibition of renal cystogenesis in Pkd1 knock-out autosomal dominant polycystic kidney disease mouse model assessed as reduction in kidney size with fewer cysts at 5 mg/kg, sc administered once daily for 7 days compound pre-irradiated with light at 365 nm prior to administration by Hematoxylin-eosin staining based analysis; format: functional, organism-based; settings: time 7.0 day
Kidney [19] = test: Ex vivo inhibition of renal cystogenesis in ADPKD C57BL/6 mouse kidney assessed as suppression of 8-Br-cAMP-induced cyst development at 10 uM measured after 4 days in presence of 8-Br-cAMP by inverted microscopic analysis; format: functional, tissue-based; settings: time 4.0 day
Kidney [20] = test: Ex vivo target occupancy at vasopressin V2 receptor in Sprague-Dawley rat kidney assessed as endurance in retention time by measuring half life at 0.1 uM treated for 30 mins followed by extensive drug wash-out for 240 mins by LC-MS analysis; format: functional, tissue-based
[21] = Drug uptake in Sprague-Dawley rat kidney at 0.1 uM treated for 30 mins followed by extensive drug wash-out for 4 hrs by LC-MS analysis; format: ADME, tissue-based; settings: in vivo, 0.5 h
Mus musculus [22] = test: In vivo inhibition of renal cystogenesis in Pkd1 knock-out autosomal dominant polycystic kidney disease mouse model assessed as reduction in kidney size at 5 mg/kg, sc administered once daily for 7 days compound pre-irradiated with light at 365 nm prior to administration; format: functional, organism-based; settings: time 7.0 day
[23] = In vivo inhibition of renal cystogenesis in Pkd1 knock-out autosomal dominant polycystic kidney disease mouse model assessed as disease progression at 5 mg/kg, sc administered once daily for 7 days compound pre-irradiated with light at 365 nm prior to administration; format: functional; set-up: scale not given: the % may be the effect or the level left; settings: time 7 day
Mus musculus [24] = test: as §4, with “in” for “in kidney size with fewer”, “cysts area” for “cysts”; format: functional, organism-based; settings: time 7.0 day
Vasopressin V2 receptor [25] = molecular target: T1, Vasopressin V2 receptor; test: as §1, with “leftward shift in competition curve” for “residence time”, “nm and measured for 10 to 60 mins” for “nm”; format: cell-based; settings: filed as antagonist, time 10-60 min
Vasopressin V2 receptor [26] = molecular target: T1, Vasopressin V2 receptor; test: Displacement of conivaptan-red fluorescent probe from SNAP-tagged human vasopressin V2 receptor expressed in HEK293 cells at 10 uM compound pre-illuminated for 10 mins with light at 365 nm and further incubated for 1 hr by HTRF assay relative to control; format: cell-based; settings: filed as antagonist

Ki (Vasopressin V2 receptor [1]): 851 nM
Compound: O=C(c1ccc(/N=N/c2ccc(F)cc2)cc1Cl)N1Cc2cccn2Cc2ccccc21

Ki (Vasopressin V2 receptor [1]): 289 nM
Compound: O=C(c1ccc(/N=N/c2ccccc2)cc1Cl)N1Cc2cccn2Cc2ccccc21

Ki (Vasopressin V2 receptor [1]): 2180 nM
Compound: O=C(c1ccc(/N=N/c2cccc(-c3ccccc3)c2)cc1Cl)N1Cc2cccn2Cc2ccccc21

Ki (Vasopressin V2 receptor [2]): 787 nM
Compound: O=C(c1ccc(/N=N\c2ccccc2-c2ccccc2)cc1Cl)N1Cc2cccn2Cc2ccccc21

Ki (Vasopressin V2 receptor [2]): 40 nM
Ratio (Vasopressin V2 receptor [3]): 1.72
inhibition [4]: < 40%
TIME (Vasopressin V2 receptor [5]): 1.07 h
K (Vasopressin V2 receptor [6]): 6.6 10^5/M/min
K (Vasopressin V2 receptor [7]): 0.017 min⁻¹
inhibition (Vasopressin V2 receptor [8]): Active
inhibition (Vasopressin V2 receptor [9]): inactive
inhibition (Vasopressin V2 receptor [10]): Active
inhibition (Vasopressin V2 receptor [11]): inactive
inhibition (Vasopressin V2 receptor [12]): Active
inhibition (Vasopressin V2 receptor [13]): Active
inhibition [14]: Active
inhibition [15]: inactive
inhibition [16]: inactive
inhibition [17]: inactive
T1/2 (Kidney [20]): 1.82 h
Drug uptake [21]: 26 nM
Activity (Vasopressin V2 receptor [25]): Active
Compound: Cc1ccc(/N=N\c2ccc(C(=O)N3Cc4cccn4Cc4ccccc43)c(Cl)c2)cc1
inhibition (Mus musculus [18]): Active
inhibition (Kidney [19]): Active
inhibition (Mus musculus [22]): Active
Activity [23]: 14.6%
inhibition (Mus musculus [24]): Active

Ki (Vasopressin V2 receptor [2]): 5280 nM
Compound: O=C(c1ccc(/N=N\c2ccc(C(F)(F)F)cc2)cc1Cl)N1Cc2cccn2Cc2ccccc21

Ki (Vasopressin V2 receptor [1]): 355 nM
Compound: Cc1cccc(/N=N/c2ccc(C(=O)N3Cc4cccn4Cc4ccccc43)c(Cl)c2)c1

inhibition (Vasopressin V2 receptor [26]): 51%
Compound: O=C(c1ccc(/N=N\c2ccc(-c3ccccc3)cc2)cc1Cl)N1Cc2cccn2Cc2ccccc21

Ki (Vasopressin V2 receptor [2]): 93 nM
Compound: O=C(c1ccc(/N=N\c2ccccc2)cc1Cl)N1Cc2cccn2Cc2ccccc21

Ki (Vasopressin V2 receptor [2]): 1240 nM
Compound: Cc1ccccc1/N=N\c1ccc(C(=O)N2Cc3cccn3Cc3ccccc32)c(Cl)c1
